# Like-named read-outs stand apart in the source and are kept apart here.
# What was measured:
# [1] = molecular target: human 5-HT2A (h5-HT2A) receptor (Homo sapiens, UniProt P28223); assay: FLIPR calcium assay, human 5-HT2A, agonist mode
# [2] = molecular target: T1, human 5-HT2A receptor (Homo sapiens, UniProt P28223); assay: biochemical
# [3] = tested on: C57BL/6J mice; assay: Behavioural responses indicative of serotonin syndrome and motor activity, observed in the mouse head twitch study; assay type: in vivo
# Protocol: (§1) The effect of different doses of representative compounds of Formula I was evaluated on head-twitch response (HTR) and other behavioural responses indicative of serotonin syndrome as behavior-based models of psychedelic activity.
# (§2) Male, C57BL/6J mice (body weight range 20-30 g) were dosed with the appropriate dose of test article, and following a 1-minute pre-treatment time, placed in individual observation chambers. Animals were visually assessed for the incidence head twitches continuously over a 1 hr period. Head twitches were defined as a rapid jerk of the head which was not elicited by an external tactile stimulus (Come and Pickering, Psychopharmacologia, 1967, 11(1): 65-78). Each head twitch was individually counted by a trained observer, and the data expressed as the mean±SEM of 6-10 mice per group. Mice were used in a single experiment only.
# [4] = tested on: C57BL/6J mice; assay: Mouse head twitch response (HTR); assay type: in vivo; settings: for duration of HT expression: at 10-30 mg/kg
# Protocol: as §1, §2
# [5] = molecular target: T1, human 5-HT2A receptor; settings: read-out: h5-HT2A IC50; competition with [3H]-ketanserin, cell membranes
# human 5-HT2A (h5-HT2A) receptor, sequence (P28223 whole entry): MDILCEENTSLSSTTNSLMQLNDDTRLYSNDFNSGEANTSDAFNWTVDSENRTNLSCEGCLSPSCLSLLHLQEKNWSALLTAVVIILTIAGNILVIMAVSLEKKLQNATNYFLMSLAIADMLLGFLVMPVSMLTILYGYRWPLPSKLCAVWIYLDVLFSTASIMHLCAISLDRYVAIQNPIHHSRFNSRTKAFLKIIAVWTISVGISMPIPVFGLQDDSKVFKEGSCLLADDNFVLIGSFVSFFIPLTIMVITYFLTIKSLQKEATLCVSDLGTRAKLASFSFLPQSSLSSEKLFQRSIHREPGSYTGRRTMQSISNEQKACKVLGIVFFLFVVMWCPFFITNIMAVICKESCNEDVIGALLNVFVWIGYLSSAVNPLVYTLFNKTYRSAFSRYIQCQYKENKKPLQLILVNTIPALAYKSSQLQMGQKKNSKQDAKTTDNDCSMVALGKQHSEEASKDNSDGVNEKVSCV
# T1 sequence (P28223 whole entry): as above
smiles,measurement,setting,value
"CCCCC/C=C\C/C=C\CCCCCCCC(=O)N1CCC(c2c[nH]c3ccc(OC)cc23)C1 (stereo not shown) [Compound I-81, (9Z,12Z)-1-(3-(5-Methoxy-1H-indol-3-yl)pyrrolidin-1-yl)octadeca-9,12-dien-1-one]",EC50,[1],> 30 µM
same,IC50,[2],> 30 µM
[2H]C([2H])(c1c[nH]c2ccc(OC)cc12)[C@H]1CCCN1C(=O)CCCCCCC/C=C\C/C=C\CCCCC [(R)—I-51],motor activity,"[3]; 1-30 mg/kg, not formally measured",did not reduce motor activity
same,"signs of 5-HT syndrome (whole body twitches, FPT, Straub tail)",[3]; up to 60 mg/kg SC,did not induce signs of 5-HT syndrome
same,ED50,"[4]; Mus musculus, male C57BL/6J mice, SC, head twitches counted over 1 hr",2.8 mg/kg
same,head twitch response expression,"[4]; mice, 1-60 mg/kg SC, compared to 5-MeO DMT",elicited a robust head twitch response expression
same,duration of HT expression,"[4]; mice, SC",0 to 30 min
"CCCCC/C=C\C/C=C\CCCCCCCC(=O)N1CCC[C@@H]1Cc1c[nH]c2ccccc12 [Compound I-46, (9Z,12Z)-1-((R)-2-((1H-Indol-3-yl)methyl)pyrrolidin-1-yl)octadeca-9,12-dien-1-one]",EC50,[1],> 30 µM
same,IC50,[2],> 30 µM
"CCCCC/C=C\C/C=C\CCCCCCCC(=O)N1CCC(c2c[nH]c3ccc(OC)cc23)CC1 [Compound I-88, (9Z,12Z)-1-(4-(5-Methoxy-1H-indol-3-yl)piperidin-1-yl)octadeca-9,12-dien-1-one]",EC50,[1],> 30 µM
same,IC50,[2],10 to 30 µM
"COc1ccc2[nH]cc(CCN(C)C)c2c1 [Compound 5-MeO-DMT, 5-MeO-DMT, reference compound]",ED50 head twitch response,"[4]; male C57BL/6J mice, SC, head twitches counted over 1 hr",8 mg/kg
same,duration of HT expression,"[4]; mice, SC",0 to 20 min
"CCCCC/C=C\C/C=C\CCCCCCCC(=O)N1CCC(c2c[nH]c3ccccc23)CC1 [Compound I-87, (9Z,12Z)-1-(4-(1H-Indol-3-yl)piperidin-1-yl)octadeca-9,12-dien-1-one]",EC50,[1],> 30 µM
same,IC50,[2],10 to 30 µM
CN(C)CCc1c[nH]c2ccccc12 [DMT],EC50,"[1]; read-out: h5-HT2A EC50, FLIPR calcium assay, agonist mode",< 10 µM
same,IC50,[5],< 10 µM
"CCCCC/C=C\C/C=C\CCCCCCCC(=O)N(C)CCc1c[nH]c2ccccc12 [Compound I-1, (9Z,12Z)—N-(2-(1H-Indol-3-yl)ethyl)-N-methyloctadeca-9,12-dienamide]",EC50,[1],> 30 µM
same,IC50,[2],10 to 30 µM
"CCCCC/C=C\C/C=C\CCCCCCCC(=O)N1CCC[C@@H]1Cc1c[nH]c2ccc(OC)cc12 [Compound I-55, (9Z,12Z)-1-((R)-2-((5-Methoxy-1H-indol-3-yl)methyl)pyrrolidin-1-yl)octadeca-9,12-dien-1-one]",EC50,[1],> 30 µM
same,IC50,[2],> 30 µM
"CCCCC/C=C\C/C=C\CCCCCCCC(=O)N(C)CCc1c[nH]c2ccc(OC)cc12 [Compound I-21, (9Z,12Z)—N-(2-(5-Methoxy-1H-indol-3-yl)ethyl)-N-methyloctadeca-9,12-dienamide]",EC50,[1],> 30 µM
same,IC50,[2],10 to 30 µM
"CCCCC/C=C\C/C=C\CCCCCCCC(=O)N1CCC(c2c[nH]c3ccccc23)C1 (stereo not shown) [Compound I-84, (9Z,12Z)-1-(3-(1H-Indol-3-yl)pyrrolidin-1-yl)octadeca-9,12-dien-1-one]",EC50,[1],> 30 µM
same,IC50,[2],10 to 30 µM

# Reference: patent US20240383850A1, “INDOLE DERIVATIVES AS SEROTONERGIC AGENTS USEFUL FOR THE TREATMENT OF DISORDERS RELATED THERETO” (Mindset Pharma Inc., priority 2021, published 2024)
